A short description of this data set: Determination of drug stability: testosterone impurities/degradants in hot-melt extruded composition by HPLC. It counts as physicochemical. On the procedure: Testosterone and any other ingredients were added to the wet granulated excipient mixture prepared according to Example 1. The blend was extruded as a monolayer film using a having a barrel temperature of 135° C. The moisture content of the blend prior to extrusion was 3.1%. The HME composition is then analyzed by HPLC according to Example 4 to determine the amount of degradants present.
Twenty doses were sampled from a HME composition at the beginning, middle and end of the extrusion run a formulation. Composites of 10 doses were analyzed in duplicate for impurities by HPLC at each time point. The weight percent for each degradant was determined. Specific degradants analyzed include: 6B-Hydroxy-testosterone, 4-Androsten-16-alpha-ol-3,17-dione, Epi-Testosterone and unidentified degradants. The HPLC method employed will vary according to the drug included in the HME composition. Such methods are found in HPLC in the Pharmaceutical Industry (edited by Godwin W. Fong, Stanley K. Lam, New York: M. Dekker, 1991) or HPLC Methods for Pharmaceutical Analysis (by George Lunn and Norman R. Schmuff. New York: John Wiley & Sons, 1997), the disclosures of which are hereby incorporated by reference.

The mark [1] stands for this setting: HME composition extruded at 135 ° C.
Setting [2] is: HME composition extruded at 145 ° C.
[3] abbreviates: HME composition, granulation fluid Aqueous Ethanol.
Where [4] appears, read: HME composition, granulation fluid Water.

For `C[C@]12CC[C@H]3[C@@H](CCC4=CC(=O)CC[C@@]43C)[C@@H]1CC[C@@H]2O` [testosterone], the “Total Unknown Impurities (%)” value runs as follows: (HME composition (PolyOx, Poloxamer wet granulated with water, Carbopol) extruded at 135 ° C.) 0.1%; (HME composition (PolyOx, Poloxamer wet granulated with water, Carbopol) extruded at 145 ° C.) 0.4%; (HME composition, granulation fluid Aqueous Ethanol (50:50 water/ethanol)) 0.00-0.75%; under setting [4], 0.50-1.00%. For the same compound, the “4-Androsten-16-alpha-ol-3,17-dione (%)” value is given as “ND (ND denotes below the limit of quantitation using the HPLC method detailed herein. In this case, ND means less than 0.1% by wt.)” under setting [1]; “ND (ND denotes below the limit of quantitation using the HPLC method detailed herein. In this case, ND means less than 0.1% by wt.)” under setting [2]; 0.00-0.20% under setting [3]; 0.10-0.50% under setting [4]. The “6B-Hydroxy-testosterone (%)” value is “ND (ND denotes below the limit of quantitation using the HPLC method detailed herein. In this case, ND means less than 0.1% by wt.)” under setting [1]; 0.15% under setting [2]; 0.00-0.20% under setting [3]; 0.10-0.50% under setting [4]. Besides, the “Epi-Testosterone (%)” value is listed as “ND (ND denotes below the limit of quantitation using the HPLC method detailed herein. In this case, ND means less than 0.1% by wt.)” under setting [1]; “ND (ND denotes below the limit of quantitation using the HPLC method detailed herein. In this case, ND means less than 0.1% by wt.)” under setting [2]; 0.00-0.50% under setting [3]; 0.00-0.50% under setting [4].

Values taken from US9867786B2, “Stabilized compositions containing alkaline labile drugs” (AUXILIUM US HOLDINGS, LLC, priority 2006, dated 2018).
